These results are taken from patent publication US20260217693A1, “SRPK1 INHIBITORS AND METHODS OF USE” (ALLIANTHERA (SUZHOU) BIOPHARMACEUTICAL CO., LTD., priority 2023, published 2026).

The target of this experiment is SRPK1 (Homo sapiens, UniProt Q96SB4). The experiment in a line: SRPK1 assay, Method 1 (ADP-Glo luminescence). It counts as biochemical. As to conditions: Method 1 (no asterisk): substrate Human SRSF1/SF2, 25° C. for 90 min, test compounds 30 μM top, 3-fold, duplicate. How it is done:
The SPRK1 assay was performed as follows:
Method 1: The assay buffer was prepared. The reference compound was diluted to 10 mM. The test compounds were prepared at a concentration of 30 mM. Fifteen nL of compounds/DMSO were transferred to a multi-well plate. Then, 7.5 ul enzyme SRPK1 was added to each well, the plate was spun down at 1000 rpm and centrifuged for 30 sec. Then, 7.5 ul substrate Human SRSF1/SF2 was added to each well, the plate spun down at 1000 rpm and centrifuged for 30 sec. The plate was then incubated at 25° C. for 90 min. After 90 min, 5 μl of ADP-Glo™ Reagent was added to each well and the plate incubated at room temperature for 60 minutes. Then, 10 μl of Kinase Detection Reagent was added to each well and the plate incubate at room temperature for 60 minutes. The luminescence of each well was recorded on Envision. The test compounds were at 30 μM top, 3-fold, in duplicate, and the final concentration of DMSO was 0.1%.
All assays were performed using Method 1, except where indicated with an asterisk (*) in the below table, indicating Method 2 was used.
(ADP-Glo turns the ADP formed in a reaction into a luminescent signal.)

SRPK1, sequence (Q96SB4 whole entry): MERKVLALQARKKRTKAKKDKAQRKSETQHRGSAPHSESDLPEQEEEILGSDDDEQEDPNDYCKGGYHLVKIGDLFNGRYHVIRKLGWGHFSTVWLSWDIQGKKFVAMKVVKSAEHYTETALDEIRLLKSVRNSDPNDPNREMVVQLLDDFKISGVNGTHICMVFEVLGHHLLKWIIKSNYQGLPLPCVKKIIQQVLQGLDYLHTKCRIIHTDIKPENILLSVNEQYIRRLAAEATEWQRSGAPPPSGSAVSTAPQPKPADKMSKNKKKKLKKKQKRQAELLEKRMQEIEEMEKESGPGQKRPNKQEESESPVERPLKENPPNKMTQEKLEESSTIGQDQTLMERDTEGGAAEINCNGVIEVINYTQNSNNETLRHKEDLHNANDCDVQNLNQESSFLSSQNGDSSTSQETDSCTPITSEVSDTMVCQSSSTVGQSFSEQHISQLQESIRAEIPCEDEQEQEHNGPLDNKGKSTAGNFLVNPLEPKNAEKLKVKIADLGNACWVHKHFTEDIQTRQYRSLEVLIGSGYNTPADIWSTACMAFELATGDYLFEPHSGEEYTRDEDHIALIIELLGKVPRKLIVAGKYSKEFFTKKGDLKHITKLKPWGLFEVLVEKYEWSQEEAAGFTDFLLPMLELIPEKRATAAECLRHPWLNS

As usually defined, the IC50 is the concentration that gives 50% inhibition. Low readings indicate higher potency, high ones lower potency. `O=C(Nc1cc(C(F)(F)F)cnc1N1CCC(O)CC1)c1ccc(-c2ccnnc2)o1` [Compound 050] returned a 50% inhibitory concentration (IC50) of 435 nM.
With `O=C(Nc1cc(C(F)(F)F)cnc1N1CCC(O)CC1)c1ccc(Cl)cn1` [Compound 093] the figure was 1260 nM; with `C[C@@H]1C[C@@H](O)CCN1c1ncc(C(F)(F)F)cc1NC(=O)c1ccc(Br)o1` [Compound 107, 5-bromo-N-[2-[(2R,4S)-4-hydroxy-2-methyl-1-piperidyl]-5-(trifluoromethyl)-3-pyridyl]furan-2-carboxamide], 746 nM.
In turn, `O=C(Nc1cc(C(F)(F)F)cnc1N1CCC(O)CC1)c1ccn(C2CCOCC2)n1` [Compound 103] came in with an IC50 of 136 nM.
Compound `O=C(Nc1cc(C(F)(F)F)cnc1N1CCC2(CCNC2=O)CC1)c1ccc(C2CCOCC2)o1` [Compound 073] came in with an IC50 of 59.3 nM.
As for `O=C(Nc1cc(C(F)(F)F)cnc1N1CCC(O)CC1)c1ccc(-c2cncnc2)o1` [Compound 063], the IC50 turned out to be 13500 nM.
The compound `C#Cc1ccc(C(=O)Nc2cc(C(F)(F)F)cnc2N2CCC(O)CC2)o1` [Compound 117] showed a half-inhibitory concentration (IC50) greater than 30000 nM.
To `C[C@@H]1C[C@H](O)CCN1c1ncc(C(F)(F)F)cc1NC(=O)c1ccc(-c2ccnc(N)c2)o1` [Compound 111] belongs 39.4 nM.
To `Nc1cc(-c2ccc(C(=O)Nc3cc(C(F)(F)F)cnc3N3CCc4[nH]ncc4C3)o2)ccn1` [Compound 124] belongs greater than 30000 nM.
With `O=C(Nc1cc(C(F)(F)F)cnc1N1CCC2(CC1)CC(O)C2)c1ccc(C2CCOCC2)o1` [Compound 060] the figure was 51.9 nM; with `O=C(Nc1cc(C(F)(F)F)cnc1N1CCC(O)CC1)c1ccc(-c2ccncc2)o1` [Compound 004, N-(2-(4-hydroxypiperidin-1-yl)-5-(trifluoromethyl)pyridin-3-yl)-5-(pyridine-4-yl) furan-2-carboxamide], 79 nM; with `O=C(Nc1cc(C(F)(F)F)cnc1N1CCCCC1)c1ccc(C2CCOCC2)o1` [Compound 036], greater than 30000 nM.
Take `C[C@@H]1C[C@@H](O)CCN1c1ncc(C(F)(F)F)cc1NC(=O)c1ccc(-c2cc(N)nc(N)c2)o1` [Compound 132]: the IC50 is greater than 30000 nM.
With `CC1(O)CCN(c2ncc(C(F)(F)F)cc2NC(=O)c2ccc(C3CCOCC3)o2)CC1` [Compound 027, N-[2-(4-hydroxy-4-methyl-1-piperidyl)-5-(trifluoromethyl)-3-pyridyl]-5-tetrahydropyran-4-yl-furan-2-carboxamide] the figure was 36.7 nM.
With `CC1(CN)CCN(c2ncc(C(F)(F)F)cc2NC(=O)c2ccc(C3CCOCC3)o2)CC1` [Compound 043] the figure was greater than 30000 nM; with `C[C@@H]1C[C@H](O)CCN1c1ncc(C2CC2)cc1NC(=O)c1ccc(-c2cn[nH]c2)o1` [Compound 127], greater than 30000 nM; with `C[C@@H]1C[C@H](O)CCN1c1ncc(C(F)(F)F)cc1NC(=O)c1ccc(-c2cc(N)nc(N)c2)o1` [Compound 133], greater than 30000 nM.
With `O=C(Nc1cc(C(F)(F)F)cnc1N1CCC(O)CC1)c1cnn(C2CCOCC2)c1` [Compound 101] the figure was greater than 30000 nM.
In turn, `O=C(Nc1cc(C(F)(F)F)cnc1N1CCC(O)CC1)c1ccc(F)cn1` [Compound 089] gave an IC50 of 878 nM.
With `CC(=O)OC1CCN(c2ncc(C(F)(F)F)cc2NC(=O)c2ccc(C(F)(F)F)cn2)CC1` [Compound 068] the figure was greater than 30000 nM; with `Nc1n[nH]cc1-c1ccc(C(=O)Nc2cc(C(F)(F)F)cnc2N2CCC(O)CC2)o1` [Compound 106, 5-(3-amino-1H-pyrazol-4-yl)-N-[2-(4-hydroxy-1-piperidyl)-5-(trifluoromethyl)-3-pyridyl]furan-2-carboxamide], 142 nM; with `C[C@@H]1C[C@@H](O)CCN1c1ncc(C2CC2)cc1NC(=O)c1ccc(Br)o1` [Compound 116], greater than 30000 nM.
On to `O=C(Nc1cc(C(F)(F)F)cnc1N1CCC(CO)CC1)c1ccc(C2CCOCC2)o1` [Compound 083], for which 39.8 nM corresponded to half-maximal inhibition (IC50).
The compound `O=C(Nc1cc(C(F)(F)F)cnc1N1CCC(O)CC1)c1cc(-c2cn[nH]c2)ccn1` [Compound 094, N-[2-(4-hydroxy-1-piperidyl)-5-(trifluoromethyl)-3-pyridyl]-4-(1H-pyrazol-4-yl)pyridine-2-carboxamide] returned an IC50 greater than 30000 nM.
To `CN(C)C(=O)C1CCN(c2ncc(C(F)(F)F)cc2NC(=O)c2ccc(C3CCOCC3)o2)CC1` [Compound 040] belongs 193 nM.
As to `CC1(O)CCCN(c2ncc(C(F)(F)F)cc2NC(=O)C2CCC(C3CCOCC3)O2)CC1` (centres unmarked) [Compound 058], 15700 nM corresponded to half-maximal inhibition (IC50).
To `Nc1cc(-c2ccc(C(=O)Nc3cc(C4CC4)cnc3N3CCc4[nH]ncc4C3)o2)cc(N)n1` [Compound 131] belongs greater than 30000 nM.
Turning to `O=C(Nc1cc(C(F)(F)F)cnc1N1CCC(O)CC1)c1ccc(-c2ccnc(O)c2)o1` [Compound 021], it took 13.5 nM to reach half-maximal inhibition (IC50).
`Cn1cc(-c2ncc(C(F)(F)F)cc2NC(=O)c2ccc(C3CCOCC3)o2)cn1` [Compound 011] showed a concentration for half-maximal inhibition (IC50) of 7490 nM.
With `C[C@@H]1C[C@H](O)CCN1c1ncc(C(F)(F)F)cc1NC(=O)c1ccc(Br)o1` [Compound 109] the figure was 746 nM.
With `C[C@@H]1C[C@H](O)CCN1c1ncc(C2CC2)cc1NC(=O)c1ccc(Br)o1` [Compound 126] the figure was greater than 30000 nM; with `O=C1C=C(c2ccc(C(=O)Nc3cc(C(F)(F)F)cnc3N3CCC(O)CC3)o2)CCO1` [Compound 102], 340 nM; with `O=C(Nc1cc(C(F)(F)F)cnc1N1CCC(O)CC1)c1ccc(-c2cc[nH]n2)o1` [Compound 084], 60.7 nM.
`CC(=O)N1CCN(c2ncc(C(F)(F)F)cc2NC(=O)c2ccc(C3CCOCC3)o2)CC1` [Compound 085]: the midpoint of inhibition, the IC50, lay at 2050 nM.
With `O=C(Nc1cc(C(F)(F)F)cnc1C1CCNCC1)c1ccc(C2CCOCC2)o1` [Compound 062] the figure was greater than 30000 nM; with `O=C(Nc1cc(C(F)(F)F)cnc1N1CCc2[nH]ncc2C1)c1ccc(Br)o1` [Compound 115], greater than 30000 nM.
On to `CC(=O)OC1CCN(c2ncc(C3CC3)cc2NC(=O)c2ccc(C3CCOCC3)o2)CC1` [Compound 028], for which the IC50 was 105 nM.
As to `O=C(Nc1cc(C(F)(F)F)cnc1-c1cncnc1)c1ccc(C2CCOCC2)o1` [Compound 013], the IC50 came to 14700 nM.
`O=C(Nc1cc(C(F)(F)F)cnc1-c1cn[nH]c1)c1ccc(C2CCOCC2)o1` [Compound 012] came in with a concentration for half-maximal inhibition (IC50) of 109 nM.
`CC1(O)CCN(c2ncc(C(F)(F)F)cc2NC(=O)c2ccc(-c3ccncc3)o2)CC1` [Compound 026] had a half-maximal inhibitory concentration (IC50) of 358 nM.
`COC(=O)C1(C)CCN(c2ncc(C(F)(F)F)cc2NC(=O)c2ccc(C3CCOCC3)o2)CC1` [Compound 032, methyl 4-methyl-1-[3-[(5-tetrahydropyran-4-ylfuran-2-carbonyl)amino]-5-(trifluoromethyl)-2-pyridyl]piperidine-4-carboxylate] displayed a 50% inhibitory concentration (IC50) of 114 nM.
To `O=C1CCC2(CCN(c3ncc(C(F)(F)F)cc3NC(=O)c3ccc(C4CCOCC4)o3)CC2)N1` [Compound 081] belongs 215 nM; to `CC(=O)OC1CC2(CCN(c3ncc(C(F)(F)F)cc3NC(=O)c3ccc(C4CCOCC4)o3)CC2)C1` [Compound 059], 78.7 nM; to `C[C@H]1C[C@@H](O)CCN1c1ncc(C(F)(F)F)cc1NC(=O)c1ccc(C2CCOCC2)o1` [Compound 075], 13.1 nM.
Compound `O=C(Nc1cc(C(F)(F)F)cnc1N1CCC(O)C1)c1ccc(C2CCOCC2)o1` (centres unmarked) [Compound 035] had a half-maximal inhibitory concentration (IC50) greater than 30000 nM.
Turning to `O=C(Nc1cc(C(F)(F)F)cnc1-c1cccnc1)c1ccc(C2CCOCC2)o1` [Compound 009], the IC50 was greater than 30000 nM.
With `O=C(Nc1cc(C(F)(F)F)cnc1N1CCC(O)CC1)c1ccc(-c2ccnc(F)c2)o1` [Compound 016] the figure was greater than 30000 nM.
`CC(=O)OC1CCN(c2ncc(C3CC3)cc2NC(=O)c2ccc(-c3ccncc3)o2)CC1` [Compound 033, 1-(5-cyclopropyl-3-(5-(pyridin-4-yl)furan-2-carboxamido)pyridin-2-yl) piperidin-4-yl acetate] yielded an IC50 of 202 nM.
In turn, `O=C(Nc1cc(C2CC2)cnc1N1CCC(O)CC1)c1ccc(-c2ccnc(F)c2)o1` [Compound 023] showed a half-inhibitory concentration (IC50) of 55.1 nM.
Compound `O=C(Nc1cc(C(F)(F)F)cnc1N1CC(O)C1)c1ccc(C2CCOCC2)o1` [Compound 039] returned an IC50 greater than 30000 nM.
`C[C@@H]1C[C@H](O)CCN1c1ncc(C2CC2)cc1NC(=O)c1ccc(-c2ccnc(N)c2)o1` [Compound 128] registered an IC50 greater than 30000 nM.
To `CC1C[C@@H](O)CCN1c1ncc(C(F)(F)F)cc1NC(=O)c1ccc(-c2ccncc2)o1` (stereo in doubt) [Compound 080, N-(2-((2S,4S)-4-hydroxy-2-methylpiperidin-1-yl)-5-(trifluoromethyl)pyridin-3-yl)-5-(pyridin-4-yl) furan-2-carboxamide] belongs 344 nM; to `CC1(O)CCN(c2ncc(Cl)cc2NC(=O)c2ccc(C3CCOCC3)o2)CC1` [Compound 025], 170 nM.
To `O=C(Nc1cc(C(F)(F)F)cnc1N1CCC(O)CC1)c1ccc(C2CCNCC2)o1` [Compound 061] belongs 8200 nM; to `O=C(Nc1cc(C(F)(F)F)cnc1-c1ccn[nH]1)c1ccc(C2CCOCC2)o1` [Compound 019], 217 nM; to `O=C(Nc1cc(C(F)(F)F)cnc1N1CCC2(CCOC2=O)CC1)c1ccc(C2CCOCC2)o1` [Compound 082], 55.5 nM.
